According to patent US11208400B2, “Substituted 6-(1H-pyrazol-1-yl)pyrimidin-4-amine derivatives and uses thereof” (Bayer Aktiengesellschaft, priority 2016, dated 2021):

Target: T1, human Npt2a (Homo sapiens, UniProt Q06495)
T1 construct: expressed in transfected cells
T1 sequence (Q06495 1-639): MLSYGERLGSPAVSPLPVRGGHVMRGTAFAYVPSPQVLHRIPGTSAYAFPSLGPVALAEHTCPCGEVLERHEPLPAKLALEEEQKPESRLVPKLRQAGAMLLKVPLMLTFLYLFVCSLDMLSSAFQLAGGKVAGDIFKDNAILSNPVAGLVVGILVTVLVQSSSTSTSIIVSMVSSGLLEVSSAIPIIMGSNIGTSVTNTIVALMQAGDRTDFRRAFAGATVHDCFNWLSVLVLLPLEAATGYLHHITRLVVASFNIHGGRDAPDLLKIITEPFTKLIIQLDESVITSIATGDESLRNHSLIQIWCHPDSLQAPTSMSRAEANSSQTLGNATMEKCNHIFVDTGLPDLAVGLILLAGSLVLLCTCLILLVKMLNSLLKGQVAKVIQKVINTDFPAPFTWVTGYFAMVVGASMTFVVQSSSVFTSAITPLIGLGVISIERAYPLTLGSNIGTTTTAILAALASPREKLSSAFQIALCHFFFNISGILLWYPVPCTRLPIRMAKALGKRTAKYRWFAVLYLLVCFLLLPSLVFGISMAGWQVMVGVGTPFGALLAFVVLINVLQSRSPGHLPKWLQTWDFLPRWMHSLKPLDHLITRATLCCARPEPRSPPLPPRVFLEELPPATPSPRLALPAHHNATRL
Test: Npt2a activity cell based assay, membrane potential dye, CHO T-REx hNpt2a cells
Settings: doxycycline-induced, depolarization by sodium phosphate influx, average or median values if tested more than once
Procedure, shortened: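 Doxycycline-induced (0.5 μg/mL, 24 h) CHO T-REx cells were loaded with membrane potential dye in sodium-free NHE buffer (pH 7.4) and exposed to compound (50 μM–1 nM, 5 min, room temperature).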

Q: How did the IC50 turn out when `CCc1c(Nc2cc(-n3nc(C)c(C(=O)N4CC(C)OC(C)C4)c3C)ncn2)nn(C)c1-c1ccc(F)cc1` (racemic) [Example 74, (±)-[syn-2,6-dimethylmorpholin-4-yl][1-(6-{[4-ethyl-5-(4-fluorophenyl)-1-methyl-1H-pyrazol-3-yl]amino}pyrimidin-4-yl)-3,5-dimethyl-1H-pyrazol-4-yl]methanone] was run?
A: 1260 nM

Q: With `Cc1cc(C)n(-c2cc(Nc3c(C4CC4)c(-c4ccc(F)cc4)nn3C)ncn2)n1` [Example 43, N-[4-cyclopropyl-3-(4-fluorophenyl)-1-methyl-1H-pyrazol-5-yl]-6-(3,5-dimethyl-1H-pyrazol-1-yl)pyrimidin-4-amine] as the compound, how does the IC50 read?
A: 144 nM

Q: `Cc1nn(-c2cc(Nc3nn(C)c(-c4ccc(F)cc4)c3C)ncn2)c(C)c1F` [Example 267, 6-(4-fluoro-3,5-dimethyl-1H-pyrazol-1-yl)-N-[5-(4-fluorophenyl)-1,4-dimethyl-1H-pyrazol-3-yl]pyrimidin-4-amine] was tested. Which IC50 did it give?
A: 27 nM

Q: Which IC50 does the source give for `CC(=O)c1c(C)nn(-c2cc(Nc3c(C)c(-c4ccc(F)cc4)nn3CC3CC3)ncn2)c1C` [Example 502, 1-[1-(6-{[1-(cyclopropylmethyl)-3-(4-fluorophenyl)-4-methyl-1H-pyrazol-5-yl]amino}pyrimidin-4-yl)-3,5-dimethyl-1H-pyrazol-4-yl]ethanone] here?
A: 5 nM

Q: Which IC50 does the source give for `CCOC(=O)Cc1c(C)nn(-c2cc(Nc3nn(C)c(-c4ccc(F)cc4)c3CC)ncn2)c1C` [Example 87, ethyl [1-(6-{[4-ethyl-5-(4-fluorophenyl)-1-methyl-1H-pyrazol-3-yl]amino}pyrimidin-4-yl)-3,5-dimethyl-1H-pyrazol-4-yl]acetate] here?
A: 32 nM

Q: Which IC50 does the source give for `COC(=O)Oc1c(C)nn(-c2cc(Nc3c(C)c(-c4ccc(F)cc4)nn3CC3CC3)ncn2)c1C` [Example 518, 1-(6-{[1-(cyclopropylmethyl)-3-(4-fluorophenyl)-4-methyl-1H-pyrazol-5-yl]amino}pyrimidin-4-yl)-3,5-dimethyl-1H-pyrazol-4-yl methyl carbonate] here?
A: 14 nM

Q: How did the IC50 turn out when `CCc1c(-c2ccc(F)cc2)nn(CC2CC2)c1Nc1cc(-n2nc(C)c(C#N)c2C)ncn1` [Example 349, 1-(6-{[1-(cyclopropylmethyl)-4-ethyl-3-(4-fluorophenyl)-1H-pyrazol-5-yl]amino}pyrimidin-4-yl)-3,5-dimethyl-1H-pyrazole-4-carbonitrile] was run?
A: 49 nM

Q: `CCc1c(-c2ccc(F)cc2)nn(CC(F)F)c1Nc1cc(-n2nc(C)c(Cl)c2C)ncn1` [Example 163, 6-(4-chloro-3,5-dimethyl-1H-pyrazol-1-yl)-N-[1-(2,2-difluoroethyl)-4-ethyl-3-(4-fluorophenyl)-1H-pyrazol-5-yl]pyrimidin-4-amine] was tested. Which IC50 did it give?
A: 71 nM

Q: For `Cc1nn(-c2cc(Nc3nn(C)c(-c4ccc(F)cc4)c3OC(F)F)ncn2)c(C)c1C(C)(C)O` [Example 500, 2-[1-(6-{[4-(difluoromethoxy)-5-(4-fluorophenyl)-1-methyl-1H-pyrazol-3-yl]amino}pyrimidin-4-yl)-3,5-dimethyl-1H-pyrazol-4-yl]propan-2-ol], which IC50 is on record?
A: 52 nM

Q: Which IC50 does the source give for `CCc1c(Nc2cc(-n3nc(C)c(C(=O)N4CCCC4C)c3C)ncn2)nn(C)c1-c1ccc(F)cc1` (single isomer, unassigned) [Example 107, [1-ent-(6-{[4-ethyl-5-(4-fluorophenyl)-1-methyl-1H-pyrazol-3-yl]amino}pyrimidin-4-yl)-3,5-dimethyl-1H-pyrazol-4-yl](2-methylpyrrolidin-1-yl)methanone] here?
A: 293 nM

Q: With `COCCn1nc(-c2ccc(C#N)cc2)c(C)c1Nc1cc(-n2nc(C)cc2C(F)F)ncn1` [Example 554, 4-[5-({6-[5-(difluoromethyl)-3-methyl-1H-pyrazol-1-yl]pyrimidin-4-yl}amino)-1-(2-methoxyethyl)-4-methyl-1H-pyrazol-3-yl]benzonitrile] as the compound, how does the IC50 read?
A: 1.9 nM

Q: Which IC50 does the source give for `Cc1nn(-c2ccc(C#N)cc2)c(C)c1Nc1cc(-n2nc(C)c(C(C)(C)O)c2C)ncn1` [Example 366, 4-[4-({6-[4-(2-hydroxypropan-2-yl)-3,5-dimethyl-1H-pyrazol-1-yl]pyrimidin-4-yl}amino)-3,5-dimethyl-1H-pyrazol-1-yl]benzonitrile] here?
A: 150 nM

Q: How did the IC50 turn out when `Cc1nn(-c2cc(Nc3nn(C)c(-c4ccc(C#N)cc4)c3C)ncn2)c(C)c1C(C)(C)O` [Example 300, 4-[3-({6-[4-(2-hydroxypropan-2-yl)-3,5-dimethyl-1H-pyrazol-1-yl]pyrimidin-4-yl}amino)-1,4-dimethyl-1H-pyrazol-5-yl]benzonitrile] was run?
A: 88 nM

Q: Which IC50 does the source give for `CCOC(=O)c1c(C)nn(-c2cc(Nc3c(CC)c(-c4ccc(F)cc4)nn3CC(F)F)ncn2)c1C` [Example 180, ethyl 1-(6-{[1-(2,2-difluoroethyl)-4-ethyl-3-(4-fluorophenyl)-1H-pyrazol-5-yl]amino}pyrimidin-4-yl)-3,5-dimethyl-1H-pyrazole-4-carboxylate] here?
A: 47 nM

Q: For `Cc1cc(C)n(-c2cc(Nc3c(C)c(-c4ccc(OC(F)(F)F)cc4)nn3CC3CC3)ncn2)n1` [Example 308, N-{1-(cyclopropylmethyl)-4-methyl-3-[4-(trifluoromethoxy)phenyl]-1H-pyrazol-5-yl}-6-(3,5-dimethyl-1H-pyrazol-1-yl)pyrimidin-4-amine], which IC50 is on record?
A: 23 nM

Q: How did the IC50 turn out when `Cc1cc(C(F)F)n(-c2cc(Nc3c(C)c(-c4ccc(C(F)(F)F)nc4)nn3CC3CC3)ncn2)n1` [Example 532, N-{1-(cyclopropylmethyl)-4-methyl-3-[6-(trifluoromethyl)pyridin-3-yl]-1H-pyrazol-5-yl}-6-[5-(difluoromethyl)-3-methyl-1H-pyrazol-1-yl]pyrimidin-4-amine] was run?
A: 2800 nM

Q: Which IC50 does the source give for `Cc1nn(-c2cc(Nc3c(C)c(-c4ccc(F)cc4)nn3C)ncn2)c(C)c1Cl` [Example 68, 6-(4-chloro-3,5-dimethyl-1H-pyrazol-1-yl)-N-[3-(4-fluorophenyl)-1,4-dimethyl-1H-pyrazol-5-yl]pyrimidin-4-amine] here?
A: 31.5 nM

Q: For `Cc1nn(-c2cc(Nc3c(C)c(-c4ccc(F)cc4F)nn3CC3CC3)ncn2)c(C)c1C(C)(C)O` [Example 368, 2-[1-(6-{[1-(cyclopropylmethyl)-3-(2,4-difluorophenyl)-4-methyl-1H-pyrazol-5-yl]amino}pyrimidin-4-yl)-3,5-dimethyl-1H-pyrazol-4-yl]propan-2-ol], which IC50 is on record?
A: 7 nM

Q: `Cc1nn(-c2cc(Nc3nn(C)c(-c4ccc(F)cc4)c3C)ncn2)c(C)c1C(C)(C)O` [Example 109, 2-[1-(6-{[5-(4-fluorophenyl)-1,4-dimethyl-1H-pyrazol-3-yl]amino}pyrimidin-4-yl)-3 5-dimethyl-1H-pyrazol-4-yl]propan-2-ol] was tested. Which IC50 did it give?
A: 50.3 nM

Q: For `Cc1nn(-c2cc(Nc3c(C)c(-c4ccc(F)cc4)nn3CC3CC3)ncn2)c(C)c1OC(F)F` [Example 509, N-[1-(cyclopropylmethyl)-3-(4-fluorophenyl)-4-methyl-1H-pyrazol-5-yl]-6-[4-(difluoromethoxy)-3,5-dimethyl-1H-pyrazol-1-yl]pyrimidin-4-amine], which IC50 is on record?
A: 10 nM

Q: With `CCc1c(-c2ccc(F)cc2)nn(C2CC2)c1Nc1cc(-n2nc(C)c(Cl)c2C)ncn1` [Example 120, 6-(4-chloro-3,5-dimethyl-1H-pyrazol-1-yl)-N-[1-cyclopropyl-4-ethyl-3-(4-fluorophenyl)-1H-pyrazol-5-yl]pyrimidin-4-amine] as the compound, how does the IC50 read?
A: 1450 nM

Q: For `CCc1c(-c2ccc(F)cc2)nn(CC2CC2)c1Nc1cc(-n2nc(C)c(Cl)c2C(F)F)ncn1` [Example 148, 6-[4-chloro-5-(difluoromethyl)-3-methyl-1H-pyrazol-1-yl]-N-[1-(cyclopropylmethyl)-4-ethyl-3-(4-fluorophenyl)-1H-pyrazol-5-yl]pyrimidin-4-amine], which IC50 is on record?
A: 80 nM

Q: How did the IC50 turn out when `Cc1cc(C)n(-c2cc(Nc3n[nH]c(-c4ccc(C#N)cc4)c3C)ncn2)n1` [Example 135, 4-(3-{[6-(3,5-dimethyl-1H-pyrazol-1-yl)pyrimidin-4-yl]amino}-4-methyl-1H-pyrazol-5-yl)benzonitrile] was run?
A: 700 nM

Q: `COC(C)c1c(C)nn(-c2cc(Nc3c(C)c(-c4ccc(C#N)cc4)nn3C)ncn2)c1C` (single isomer, unassigned) [Example 340, 4-{5-[(6-{4-[1-methoxyethyl]-3,5-dimethyl-1H-pyrazol-1-yl}pyrimidin-4-yl)amino]-1,4-dimethyl-1H-pyrazol-3-yl}benzonitrile] was tested. Which IC50 did it give?
A: 12 nM

Q: For `Cc1nn(-c2cc(Nc3nn(C)c(-c4ccc(F)cc4)c3OC(F)F)ncn2)c(C)c1C#N` [Example 471, 1-(6-{[4-(difluoromethoxy)-5-(4-fluorophenyl)-1-methyl-1H-pyrazol-3-yl]amino}pyrimidin-4-yl)-3,5-dimethyl-1H-pyrazole-4-carbonitrile], which IC50 is on record?
A: 7 nM

Q: With `Cc1nn(-c2cc(Nc3n[nH]c(-c4ccccc4)c3Cl)ncn2)c(C)c1Cl` [Example 54, 6-(4-chloro-3,5-dimethyl-1H-pyrazol-1-yl)-N-(4-chloro-5-phenyl-1H-pyrazol-3-yl)pyrimidin-4-amine] as the compound, how does the IC50 read?
A: 90.3 nM

Q: How did the IC50 turn out when `Cc1cc(C)n(-c2cc(Nc3nn(C)c(-c4ccc(OC(F)(F)F)cc4)c3C)ncn2)n1` [Example 98, 6-(3,5-dimethyl-1H-pyrazol-1-yl)-N-{1,4-dimethyl-5-[4-(trifluoromethoxy)phenyl]-1H-pyrazol-3-yl}pyrimidin-4-amine] was run?
A: 51 nM
